According to patent US12264175B2, “Compositions and methods for capping RNAS” (Verve Therapeutics, Inc., priority 2020, dated 2025):

Experiments:
T7 RNA polymerase [1] = target: T1, T7 RNA polymerase (Escherichia phage T7, UniProt P00573); experiment: One-pot IVT preparation of 5′ capped mRNA (production yield, full-length purity); type: biochemical
Source text: The 5′ end initiator, 1007a, (FIG. 1A) was used to prepare capped mRNAs that encode for ABE and luciferase proteins. In this Example and for all others described herein, the ABE mRNA sequence was MA004 (SEQ. 0001) and the luciferase mRNA sequence was the Photinus pyralis (Firefly) luciferase sequence described in NCBI reference sequence XM_031473197.1. These mRNA can be produced by different methods well known in the art. One of such methods used herein was in vitro transcription (IVT) using T7 polymerase; or in other embodiments, additional RNA polymerase variants. This IVT reaction to produce mRNA used a linearized DNA template that comprised a T7 polymerase promoter and associated regulatory sequences, mRNA coding sequence (CDS), 3′ and 5′ untranslated regions (UTRs), poly A tail, and additional sequence elements to facilitate and modulate mRNA stability and in vivo performance. Prior to IVT, the DNA template was in the form of a plasmid; in other embodiments the DNA template is in the form of a PCR product, synthetic DNA product, or any other double-stranded DNA construct. Linearization of the DNA template with a restriction digestion enzyme was performed in order to promote run-off transcription. The typical IVT reaction included T7 polymerase, DNA template, RNase inhibitor, cap analog, inorganic pyrophosphatase, and the naturally occurring ribonucleoside triphosphates (NTPs) such as GTP, ATP, CTP, and N1-methyl pseudouridine triphosphosphate; in some embodiments NTPs include UTP or modified NTPs such as pseudouridine, 5′methyl cytidine, 5-methoxy uridine, N6-methyl adenosine, and N4-acetyl cytidine. The 1007a 5′ end initiator was added to the IVT reaction along with ATP, GTP, CTP, and N1-methyl pseudouridine triphosphate at a 1:1 initiator-to-NTP molar ratio and additional ratios described in Example 5 (B). Poly A tail was encoded in the DNA template that was added to the mRNA during transcription; in some instances, poly A tail is added to the mRNA after the IVT reaction using an RNA ligase enzyme. Finally, T7 RNA polymerase was added to the mixture and the IVT reaction was run at 37° C. for about 1-4 hours. After IVT, DNase was added to the transcription mixture to remove DNA template; in some instances, residual DNA is removed with chromatography. This mRNA was purified to remove residual reaction products and impurities, and stored in 1 mM citrate buffer. Characterization of production yield and mRNA full-length purity was performed by UV spectrometry and capillary gel electrophoresis methods, which are known in the art. […] Similar IVT and purification process are used to produce mRNA encoding SpCas9, Cas12b, CBE, and other ABEs; in all cases the DNA template, reaction conditions, and purification parameters are optimized for the specific gene of interest.
Similarly, ABE encoding mRNA with 5′ end region, 1107a, (FIG. 1B) was produced and characterized as described in the paragraph above.

[2] = test system: primary human liver hepatocytes (hPH); experiment: ABE protein levels by ELISA after mRNA transfection of primary human hepatocytes; type: cell-based; conditions: ABE mRNA transfected to hPH cells, FIG. 6
Experimental: Primary human liver hepatocytes (hPH), primary cynomolgus liver hepatocytes (cPH), or primary mouse liver hepatocytes (mPH) are cultured per the manufacturer's protocol. In brief, the cells are thawed and resuspended in hepatocyte thawing medium followed by centrifugation at 100 g for 10 min at 4° C. The supernatant is discarded, and the pelleted cells resuspended in hepatocyte plating medium. Each vial contains ˜5 million cells that are used for plating one 24-well plate. Plated cells are allowed to settle and adhere for 4-6 h in a tissue culture incubator at 37° C. under 5% CO2 atmosphere. After incubation, cells are checked for monolayer formation. The incubating media is then replaced with fresh hepatocyte maintenance media The cells thus are ready for transfection using a transfection agent such as MessengerMAX. Solution A: desired amount of single guide RNA (sgRNA) is mixed with 1:1 wt ratio of mRNA in OptiMEM. Solution B: MessengerMAX in OptiMEM. After mixing solutions A and B, the mixture is incubated at room temperature for 20 minutes, and then the incubated solution is added dropwise to each well of cells. The cells are then allowed to remain at 37° C. for 3 days. […] For example, mRNA with 5′ end region motifs, 1007a and 1107a, were transfected to hPH cells as described above, the cells were lysed, and ABE protein levels were measured by ELISA. […]

T7 RNA polymerase [3] = target: T1, T7 RNA polymerase; experiment: mRNA capping efficiency at adjusted 5′ end initiator-to-NTP molar ratio; type: biochemical; conditions: initiator-to-NTP ratio ranging from 1:1 down to 1:1.67; FIG. 4
Source text: The amount of capped mRNA produced in an IVT reaction is directly proportional to the ratio of cap to NTPs in the reaction mixture (Stepinski, J. et al., RNA. 2006, 7, 1486-1495). The 5′ end initiator-to-NTP ratio in an IVT reaction impacts the amount of mRNA that becomes capped primarily because cap can compete with NTPs for insertion at the 5′ end of mRNA. A typical initiator-to-NTP ratio for a dinucleotide cap structure is 4:1 and a typical molar initiator-to-NTP ratio for a trinucleotide cap structure is 1:1; where NTP represents either GTP, ATP, CTP, UTP, or modified NTPs such as N1-methyl pseudouridine. At both a 4:1 ratio for a dinucleotide cap and 1:1 ratio for a trinucleotide cap, the resultant mRNA will have a mixture of transcripts of which at least 80% are capped at the 5′ end and up to 20% are uncapped, this is also described as a capping efficiency of 80%. Capping efficiency is the measured amount of capped mRNA divided by the total amount of capped mRNA plus uncapped mRNA. Therefore, trinucleotide caps can be considered more efficient capping compounds than dinucleotide caps since less input cap is required to produce a final mRNA product that contains a similar amount of capped 5′ ends. The ability of trinucleotide caps to produce a high (>90%) capping efficiency at a lower initiator-to-NTP ratio than dinucleotide caps, in some instances, can be attributed to the increased affinity of a trinucleotide cap for the DNA template. In some cases, the optimal cap-to-NTP ratio may vary with the composition of the cap structure, wherein modification of cap structures may affect capping efficiency. […]
The amount of capped mRNA relative to the total amount of mRNA that is present, i.e. capping efficiency, can be measured by numerous methods well known in the art. […]

T7 RNAP = T7 RNAP (Escherichia phage T7, UniProt P00573); conditions: first initiating NTP / guanosine; J. Mol. Biol. (2007) 370, 256-268; cited from earlier work
Chain of T7 RNAP (P00573 whole entry): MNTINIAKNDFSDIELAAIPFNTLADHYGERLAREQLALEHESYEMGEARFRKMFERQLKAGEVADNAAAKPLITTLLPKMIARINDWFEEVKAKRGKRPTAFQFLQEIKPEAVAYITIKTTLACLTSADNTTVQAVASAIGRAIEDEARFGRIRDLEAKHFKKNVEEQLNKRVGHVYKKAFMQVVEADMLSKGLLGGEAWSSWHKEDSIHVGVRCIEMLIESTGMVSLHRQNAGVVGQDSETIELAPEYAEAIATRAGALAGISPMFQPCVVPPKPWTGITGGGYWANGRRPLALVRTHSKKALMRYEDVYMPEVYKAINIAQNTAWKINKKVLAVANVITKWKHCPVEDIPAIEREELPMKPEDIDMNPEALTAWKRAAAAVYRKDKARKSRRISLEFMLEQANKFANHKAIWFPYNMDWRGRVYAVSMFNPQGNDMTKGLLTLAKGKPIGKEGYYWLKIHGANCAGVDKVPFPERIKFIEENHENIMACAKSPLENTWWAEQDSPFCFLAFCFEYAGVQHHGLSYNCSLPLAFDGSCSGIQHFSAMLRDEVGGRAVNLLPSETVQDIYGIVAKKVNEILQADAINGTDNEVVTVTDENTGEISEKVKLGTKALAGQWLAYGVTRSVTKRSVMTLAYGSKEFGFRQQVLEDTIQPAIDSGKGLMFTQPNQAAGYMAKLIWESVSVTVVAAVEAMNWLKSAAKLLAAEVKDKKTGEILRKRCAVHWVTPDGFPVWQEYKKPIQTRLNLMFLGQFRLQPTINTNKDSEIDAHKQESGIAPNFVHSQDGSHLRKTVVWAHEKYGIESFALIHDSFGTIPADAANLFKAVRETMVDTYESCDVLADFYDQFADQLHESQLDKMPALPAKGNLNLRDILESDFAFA

T1 sequence (P00573 whole entry): as above

SMILES	final production yield of mRNA (T7 RNA polymerase [1]; ABE encoding mRNA made with the 5′ end initiator, T7 IVT, FIG. 2)	mRNA full-length purity (T7 RNA polymerase [1]; ABE encoding mRNA made with the 5′ end initiator, capillary gel electrophoresis, FIG. 3)	amount of full-length mRNA produced (T7 RNA polymerase [1]; initiator-to-NTP ratio ranging from 1:1 down to 1:5, FIG. 3)	ABE protein levels as compared to mRNA with 5′ end region motif 1002a [2]	capping efficiency (T7 RNA polymerase [3])	Kd (T7 RNAP)
COC1C(OP(=O)(O)OCC2OC(n3cnc4c(=O)[nH]c(N)nc43)C(O)C2O)C(COP(=O)(O)OP(=O)([S-])OP(=O)(O)OCC2OC(n3c[n+](C)c4c(=O)[nH]c(N)nc43)C(O)C2O)OC1n1cnc2c(N)ncnc21 (stereo not drawn) [1107a, m^7G(ppsp)Am(p)G]	about 3.3 mg per 1 ml of IVT reaction	about 86%	did not reduce	similar	> 90%	
Nc1nc2c(ncn2[C@@H]2O[C@H](COP(=O)(O)OP(=O)(O)OP(=O)(O)O)[C@@H](O)[C@H]2O)c(=O)[nH]1 [GTP]						2 mM
